Reference: a melting point compilation (Tetko et al.; mined from patent text by program, amines drawn as free bases though some values may be those of a salt)

| SMILES | melting point [°C] |
| --- | --- |
| CNc1nnc(SCc2ccccn2)s1 | 73 to 75 |
| Nc1cccc(-c2ccc(CCN3CCN(C4CCc5ccccc5C4)CC3)cc2)n1 (stereo not given) | > 220 |
| CCOP(=O)(CCc1ccnc(-c2nc(=O)c3ccc(Cl)cc3s2)c1)OCC | 138 to 139 |
| CSc1cc(C)nc(SC)c1NC(=O)CCCCCSc1nc2ccccc2s1 | 123 to 125 |
| COc1cccc2c1CCC[C@H]2NC(=O)c1cccc(Cl)c1O | 175 to 176 |
| CN(CCN1C(=O)c2ccccc2C(C)(C)C1=O)CCN1C(=O)c2ccccc2C(C)(C)C1=O | 106 to 107 |
| O=C(Nc1ccc(Oc2ccnc(N3CCCC3)n2)c2ccccc12)c1cc(F)cc(N2CCCCC2)c1 | 111 to 113 |
| CCN1C(=O)C(C)(C)C(=O)N(C)c2cc(CN(CCn3ccc4oc(C)cc4c3=O)Cc3nc4ccccc4n3C)ccc21 | 127 to 133 |
| N#Cc1cc(F)c(F)c(Br)c1Cl | 71 to 72.5 |
| O=C(Cc1ccc(Cl)cc1Cl)N1CCN(c2cnccn2)CC1 | 124 to 125 |
| N#Cc1nn(-c2ccc(S(N)(=O)=O)cc2)c2c1CSc1ccccc1-2 | 211 to 213 |
| Cn1cnc(COc2n[nH]c(C=O)c2-c2ccccc2)n1 | 202 to 205 |
| NC(=O)N(O)CCNC(=O)c1cccc(C(=O)c2ccccc2)c1 | 168 to 170 |
| Nc1ccc(C#Cc2nc(F)c(F)c(F)c2F)c(C#Cc2nc(F)c(F)c(F)c2F)c1 | 164 to 165 |
| O=C1c2ccccc2Cc2c1ccc(Cl)c2O | 186 to 188 |
| CC(=N)Nc1cccc(F)c1 | 175 to 177 |
| CC(C)(S)CN1CCN(c2ccccn2)CC1 | 108 to 110 |
| CO[C@@H]1OC(C)(C)O[C@@]1(C)c1cccc(OCc2ccc3ccccc3c2)c1 (racemic) | 100 to 103 |
| O=C(O)COc1ccc2c(-c3ccc(Cl)c(Cl)c3)noc2c1Cl | 222 to 224 |
| CCC(Oc1cccc(N(C)C)c1)C(=O)OC1CC(O)C=C2C=CC(C)C(CCC3CC(O)CC(=O)O3)C21 (mixture of isomers) | 124 to 126 |
| O=C(O)CC1(c2ccccc2)Oc2ccccc2O1 | 152 to 153 |
| COc1nccc(C)c1NC(=O)c1cc(C)nc2c1c(C)nn2-c1ccccc1 | 172 to 174 |
| C[C@]12CC(=O)[C@H]3[C@@H](CCC4=CC(=O)CC[C@@H]43)[C@@H]1CCC2=O | 204 to 209 |
| O=C1Nc2ccc(C(F)(C(F)(F)F)C(F)(F)F)cc2CN1NCc1cccnc1 | 159 to 161 |
| COc1ccc(OC)c(C(=O)c2cccc([N+](=O)[O-])c2)c1 | 98 |
| CC(C)c1nc(COCc2ccccc2)n(CCO)c1Sc1cc(Cl)cc(Cl)c1 | 78 to 80 |

| SMILES | melting point [°C] |
| --- | --- |
| COc1ccc(COC(=O)N[C@@H](Cc2ccccc2)C(=O)O)cc1 | 87 to 88 |
| NC(=O)[C@H](Cc1cccnc1)NC(=O)OCc1ccccc1 | 153 |
| CCCCCCCCCCCCCCC(CCC(=O)OCc1ccccc1)(C(=O)O)C(=O)O | 47 to 49 |
| C[Si](C)(C)CCOCn1c(Br)nc(C#N)c1C#N | 47 to 52 |
| CCOC(=O)COc1ccc(C=NCCN=Cc2ccc(OCC(=O)OCC)cc2O)c(O)c1 | 104 to 106 |
| CC(Cl)(Cl)C(NC(=O)c1cccc(Cl)c1)Nc1c(Nc2cccnc2)c(=O)c1=O (stereo not given) | 202 to 204 |
| COc1ccc(-c2c(Cl)c(CN3C(=O)CCC3=O)nc3sc4c(c23)CC(C)(C)C(O)C4)cc1 (stereo not given) | 227 to 229 |
| NN1CCC2(CC1)OC(c1ccccc1)c1ccccc12 (stereo not given) | 143 to 145 |
| Cc1cn(-c2cccc(OCCOS(N)(=O)=O)c2)cn1 | 169 to 170 |
| CCOP(=O)(Cc1ccc(C(=O)Nc2ccc(Br)cc2C#N)cc1)OCC | 165 to 166 |
| COc1cc(OC(C)=O)c(OC)c(CCCCCc2c(OC)c(OC(C)=O)cc(OC)c2OC(C)=O)c1OC(C)=O | 94.5 to 95 |
| O=C(O)Cn1c(=S)c2ccccc2n(Cc2ccc(Cl)c(Cl)c2)c1=O | 237 to 238 |
| O=C(Nc1ccc2ccc(Cl)nc2n1)c1ccccn1 | 319 |
| CN1CCN(C(=O)CN2C(=O)C(NC(=O)Nc3ccc(Cl)cc3)N=C(c3ccccc3)c3ccccc32)CC1 (stereo not given) | 278 to 280 |
| COC(=O)C1=NN(c2ccc(F)cc2)C(C)(C(=O)OC)C1 (stereo not given) | 114 to 118 |
| CC(=O)Nc1ccc(/C=C/C(=O)/C=C/c2ccc(NC(C)=O)cc2)cc1 | 253 to 255 |
| CCCCNCc1ccc(-c2ccccc2S(=O)(=O)NC(C)(C)C)cc1 | 98 to 99 |
| CCCCCCCCCCCCCCOc1ccc(NC(=O)Nc2cccc(CCBr)c2)cc1 | 164 to 169 |
| O=C(NCCCCCNC(=O)c1ccc2c(c1)OCO2)c1ccc2c(c1)OCO2 | 158 to 160 |
| O=C(O)CCCCCCCCCCCCCCCCCCCCCI | 71 to 72 |
| O=C1NC(c2cccs2)=C2C(=O)NC(c3cccs3)=C12 | > 400 |
| Nc1c(Cl)cc(C(O)CNCCCCCCSCCc2ccccn2)cc1Cl (stereo not given) | 83 to 84 |
| O=C(Nc1cccnc1)c1nnc2ccccc2c1O | 326 to 328 |
| Oc1cncc2ccsc12 | 180 |
| CCOc1cc(CC)ccc1C1CCN(CCCCNC(=O)c2sc(-c3ccc(C(F)(F)F)cc3)nc2CO)CC1 | 150 |
| CC1(C)OC(c2ccc(S(N)(=O)=O)cc2)=C(c2cc3ccccc3o2)C1=O | 143 to 145 |

Next, values leading:

| melting point [°C] | SMILES |
| --- | --- |
| 139 to 141 | CC(C)(C(N)=O)c1ccc(Br)cc1 |
| 215 to 218 | CC(C)(CO)Nc1nc(Nc2cccc(NS(C)(=O)=O)c2)nc2[nH]cnc12 |
| 196 | CCCc1cc(=O)[nH]c(NC(=N)Nc2ccccc2)n1 |
| 202 to 204 | O=C(Nc1ccc(C(=O)N2CCCc3ccccc32)cc1)c1ccccc1 |
| 119 to 120 | CCc1c(C(=O)c2cc(C)cc(C)c2)n(C/C=C/CN=[N+]=[N-])c(=O)[nH]c1=O |
| 66 to 68 | COC(=O)c1cc(F)c(C(F)(F)F)cc1[N+](=O)[O-] |
| 198 to 200 | COc1c(N)cc(-c2c3ccccc3c(Br)c3sc(C)c(C)c23)cc1Br |
| 132 to 134 | COc1c(OC)c(OC)c2c(=O)cc(-c3ccc(OCc4ccccc4)cc3)oc2c1OC |
| 260 to 262 | CC(C)C[C@H]1CNC[C@H]1C(=O)O (relative stereo) |
| 119 | CCCCCCCCOC1(OC(=O)C2CCCO2)C=CC(c2ccccc2)=CC1 (stereo not given) |
| 146 to 147 | C[C@]1(COc2ccc(N3CCC(Nc4ccc(Cl)c(Cl)c4)CC3)cc2)Cn2cc([N+](=O)[O-])nc2O1 |
| 62 to 66 | COC(=O)c1cccc(NC(=O)[C@H](Cc2ccccc2)NC(=O)OC(C)(C)C)c1 |
| 85 to 86 | OCc1cc(OC2CCCC2)c(OC(F)F)cn1 |
| 274 to 276 | Cc1nn(Cc2ccccc2)c2c1c(=O)n(-c1ccccc1)c1ncccc21 |
| 155 to 157 | Cc1ccc(-c2cn(C)cc(-c3cccc(C)c3)c2=O)cc1 |
| 104 to 105 | COc1ccc(OC)c(CN2CCc3cc(O)c(OC)cc3C2)c1 |
| 251 to 255 | N#Cc1ccc(N2CCN(Cc3cnc4c(c3)NC(=O)[C@@H]3CCCN43)CC2)cc1F |
| 91 | CCCCCCCC(=O)N(C)Cc1cccc(-c2ccc(CCC(=O)O)cc2)c1 |
| 245 to 247 | CC#CCOc1ccc(S(=O)(=O)NC(C(=O)O)c2ccc(OCCN3CCCC3)cc2)cc1 (stereo not given) |
| 160 to 162 | Cn1nc(-c2ccccc2O)oc1=O |
| 142 to 144 | O=C1NCCc2c(NCc3ccccc3)cccc21 |
| 295 to 300 | CC(C)c1ccc(NC(=O)Nc2cccc(C(=O)O)c2)cc1 |
| 53 | COC(=O)CC1=C(C)Cc2ccc(F)cc21 |
| 48 to 50 | COC(=O)c1cc(I)ccc1OC |

| melting point [°C] | SMILES |
| --- | --- |
| 189 to 190 | Cc1c(NC(=O)CC(C)(C)C)cc2c(c1C)OC(C)(C)C2(O)c1cccc(C=O)c1 (stereo not given) |
| 82 to 85 | CCCCCCCCCCC=Cc1cnn(C(C(=O)Nc2c(OC)cc(OC)cc2OC)c2ccccc2)c1 (stereo not given) |
| 153 to 155 | CCCCc1nn(C(C)C(=O)NC)c(=O)n1Cc1ccc(-c2ccccc2-c2nnn[nH]2)cc1 (stereo not given) |
| 157 to 158 | CCc1nn(CC(=O)O)c(CC)c1Oc1cc(Cl)cc(Cl)c1 |
| 106 to 107 | C=C(C)C(=O)Oc1ccc(S(=O)(=O)NC)cc1 |
| 75 to 87 | CNC(=O)C1(Nc2nc(Nc3cc4c(cc3OC)CCN(CC(=O)N(C)C)CC4)ncc2Cl)CCCC1 |
| 149 to 152 | Cc1cncn1CC#Cc1cc(CN2CCOCC2)cc2c(=O)c(C(=O)NCc3ccc(Cl)cc3)cn(C)c12 |
| 177 | OC(c1cccc(OCc2ccc3ccccc3n2)c1)(c1nccs1)C(F)(F)F (stereo not given) |
| 140 to 144 | O=C(O)COc1nc(F)c(Cl)cc1Cl |
| 101 | Clc1cccc(C(c2ccccc2)(c2ccccc2)n2ccnc2)c1 |
| 228 to 230 | CC(=O)Nc1cnn2c1-c1ccccc1NC2(C)C |
| 141 | Brc1cn2c(Br)cnc2c(N2CCOCC2)n1 |
| 106 to 108 | CC1CCc2nc(Cl)nc(-c3ccc(F)cc3)c2C1 (stereo not given) |
| 168 to 170 | Nc1cc(N)cc(O)c1 |
| 180 to 182 | CC(C)(C)c1ccc(Nc2nnc(Cc3cnc(O)c(-c4ccco4)c3)c3ccccc23)cc1 |
| 154 | O=C(c1ccc(Cl)cc1)c1cccc(O)c1 |
| 113 to 115 | COc1ccc2c(c1)c(CC(=O)O)c(C)n2C(=O)c1ccc(F)c(F)c1 |
| 28 to 30 | CCOC(=O)c1ccccc1-c1cc(-c2cccc(C(F)(F)F)c2)no1 |
| 188 to 190 | NC(=O)c1cc(OC(F)(F)F)ccc1O |
| 156 to 157 | CC(=O)NC(C)(C)c1ccc(C(C)N2CCN(c3ccc(F)cc3)CC2)cc1 (stereo not given) |
| 133 to 135 | O=C(O)Cc1ccc2c(c1)C(=O)CC2 |
| 255 to 256 | COc1ccc(-c2c(Br)c(CN3C(=O)CCC3=O)nc3sc4c(c23)CCN(Cc2ccccc2)C4)cc1 |
| 245 to 248 | CC(c1oc2ccc(F)cc2c(=O)c1-c1ccccc1F)n1cnc2c(N)ncnc21 (stereo not given) |
| 121 to 123 | CCCCC(OC)c1c(C(C)C)nc(C(C)C)c(CO)c1-c1ccc(F)cc1 (stereo not given) |
